Assay results: patent US8034940B2, “Modulators of glucocorticoid receptor, AP-1, and/or NF-κB activity and use thereof” (Bristol-Myers Squibb Company, priority 2006, dated 2011)

What was measured:
[1] = target: T1, human full-length glucocorticoid receptor (Homo sapiens, UniProt P04150); test: Glucocorticoid Receptor Binding Assay (II), fluorescence polarization, FITC-dexamethasone; set-up: recombinantly expressed human full-length glucocorticoid receptor; purchased PanVera Co., Madison P2816; settings: GR Binding Assay (II); read-out: GR (Ki, nM) (GR Binding Assay (II))
T1 sequence (P04150 1-777): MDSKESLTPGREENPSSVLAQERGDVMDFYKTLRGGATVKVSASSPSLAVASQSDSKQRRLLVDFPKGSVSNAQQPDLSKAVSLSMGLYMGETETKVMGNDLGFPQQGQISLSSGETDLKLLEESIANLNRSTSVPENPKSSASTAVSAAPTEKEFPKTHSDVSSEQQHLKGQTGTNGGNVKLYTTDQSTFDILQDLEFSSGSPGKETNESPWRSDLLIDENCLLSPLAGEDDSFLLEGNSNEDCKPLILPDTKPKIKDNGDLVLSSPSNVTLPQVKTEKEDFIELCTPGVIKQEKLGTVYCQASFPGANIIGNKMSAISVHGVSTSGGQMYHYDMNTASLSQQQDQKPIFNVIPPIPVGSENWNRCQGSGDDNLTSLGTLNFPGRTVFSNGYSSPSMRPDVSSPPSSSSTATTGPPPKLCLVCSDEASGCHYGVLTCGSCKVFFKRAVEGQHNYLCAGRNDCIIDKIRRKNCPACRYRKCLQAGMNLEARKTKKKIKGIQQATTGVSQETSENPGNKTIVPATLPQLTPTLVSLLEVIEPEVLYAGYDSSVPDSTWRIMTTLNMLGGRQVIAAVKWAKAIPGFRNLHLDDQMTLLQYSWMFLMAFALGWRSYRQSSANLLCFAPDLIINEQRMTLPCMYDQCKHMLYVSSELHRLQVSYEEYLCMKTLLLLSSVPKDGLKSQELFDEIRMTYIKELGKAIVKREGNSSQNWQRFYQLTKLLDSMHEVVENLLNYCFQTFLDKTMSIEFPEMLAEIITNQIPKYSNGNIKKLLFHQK
Description: Glucocorticoid Receptor Binding Assay (II)^b
In order to measure the binding of compounds on the glucocorticoid receptor a commercially available kit was used (Glucocorticoid receptor competitor assay kit, PanVera Co., Madison, W1, P2816). Briefly, a cell lysate containing recombinantly expressed human full-length glucocorticoid receptor was mixed with a fluorescently labeled glucocorticoid (4 nM FITC-dexamethasone) plus or minus test molecule. After one hour at room temperature, the fluorescence polarization (FP) of the samples were measured. […] Test molecules were analyzed in the concentration range from 0.1 nM to 40 μM.

[2] = test system: AP-1 induced transcriptional activity; test: Cellular Transrepressional Assay (AP-1 luciferase reporter, PMA-activated A549 cells); type: cell-based; settings: Homo sapiens, A549, 7 h, maximum inhibition, Cellular Transrepression Assay; read-out: AP-1 Max % inh (Cellular Transrepression Assay)
Procedure, shortened: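 A549 cells stably carrying a 7× AP-1–luciferase reporter were stimulated with 10 ng/ml PMA with or without compound (0.1 nM–40 μM) for 7 h. Luminescence read 10 min after luciferase reagent; EC50 fitted from % decrease versus PMA-only signal.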

[3] = target: T1, human full-length glucocorticoid receptor; test: Glucocorticoid Receptor Binding Assay (I), fluorescence polarization, Fluormone GS Red; set-up: purified human recombinant full-length glucocorticoid receptor; purchased Invitrogen Part #2893; settings: GR Binding Assay (I); read-out: GR (Ki, nM) (GR Binding Assay (I))
Description: Glucocorticoid Receptor Binding Assay (I)^a
Briefly, purified human recombinant full-length glucocorticoid receptor (2 nM) was mixed with fluorescently labeled glucocorticoid (1 nM Fluormone GS Red) in the presence or absence of test compound. After two hour incubation at room temperature in the dark, the fluorescence polarization (FP) of the samples was measured. […] Test compounds were analyzed in the concentration range from 8.5E-05 μM to 5 μM.

Row | SMILES | Ki [1] [nM] | Ki [3] [nM] | Emax [2] [%]
1 | COCCOCOc1ccc2c(c1)Oc1ccccc1C2C(C)(C)C(=O)Nc1nccs1 (stereo not drawn) [Example 98] | 88.7 | – | –
2 | COc1ccc2c(c1)Oc1ccccc1[C@@H]2C(C)(C)C(=O)Nc1ncc[nH]1 [Example 61] | 909 | – | –
3 | CC(C)(C(=O)Nc1nccs1)[C@@H]1c2ccccc2Oc2cc(O)ccc21 [Example 94] | 404 | – | –
4 | Cc1cnc(NC(=O)C(C)(C)C2c3ccccc3Oc3ncccc32)s1 (stereo not drawn) [Example 69] | 515 | – | –
5 | CC(C)(C(=O)Nc1nccs1)C1c2ccccc2Oc2ccccc21 [Example 37] | 1.4 | – | –
6 | CC(C)(C(=O)Nc1nc(Cc2ccccc2)cs1)C1c2ccccc2Oc2ccccc21 [Example 36] | 1040 | – | –
7 | COCCN(C)C(=O)c1ccc(-c2ccc3c(n2)Oc2ccccc2[C@@H]3C(C)(C)C(=O)Nc2nncs2)cc1 [Example 295] | – | 38.7 | 24.4
8 | COc1cccc2c1Oc1ccccc1C2C(C)(C)C(=O)Nc1nccs1 (stereo not drawn) [Example 84] | 104 | – | –
9 | COc1ccc2c(c1)Oc1ccccc1[C@@H]2C(C)(C)C(=O)Nc1nccs1 [Example 60] | 35.7 | – | –
10 | COc1ccc2c(c1)Oc1ccccc1[C@H]2C(C)(C)C(=O)Nc1nccs1 [Example 56] | 233 | – | –
11 | CC(C)(C(=O)Nc1nncs1)[C@H]1c2ccccc2Oc2nc(-c3ccc(C(=O)NCc4ccccc4)cc3)ccc21 [Example 349] | – | 5.88 | 31.7
12 | CC(C)(C(=O)Nc1nccs1)C1c2ccccc2CCc2ccccc21 [Example 25] | 41.1 | – | –
13 | CN(CCc1ccccc1)C(=O)c1ccc(-c2ccc3c(n2)Oc2ccccc2[C@@H]3C(C)(C)C(=O)Nc2nncs2)cc1 [Example 276] | – | 4.05 | 27.2
14 | CC(C)(C(=O)Nc1nncs1)[C@H]1c2ccccc2Oc2nc(-c3ccc(C(=O)N4CCCN(Cc5ccccc5)CC4)cc3)ccc21 [Example 298] | – | 242 | 25.4
15 | CN(Cc1ccncc1)C(=O)c1ccc(-c2ccc3c(n2)Oc2ccccc2[C@@H]3C(C)(C)C(=O)Nc2nncs2)cc1 [Example 301] | – | 20.3 | 28.6
16 | CC(C)(C(=O)Nc1nncs1)[C@H]1c2ccccc2Oc2nc(-c3ccc(C(=O)NCCc4ccccc4)cc3)ccc21 [Example 354] | – | 20.1 | 28.9
17 | CC(C)CCN(C)C(=O)c1ccc(-c2ccc3c(n2)Oc2ccccc2[C@@H]3C(C)(C)C(=O)Nc2nncs2)cc1 [Example 270] | – | 20.9 | 28
18 | CC(C)(C(=O)Nc1nncs1)[C@H]1c2ccccc2Oc2nc(-c3ccc(C(=O)N4CCC(c5ccccc5)CC4)cc3)ccc21 [Example 281] | – | 33.5 | –
19 | CN(CCS(C)(=O)=O)C(=O)c1ccc(-c2ccc3c(n2)Oc2ccccc2[C@@H]3C(C)(C)C(=O)Nc2nncs2)cc1 [Example 286] | – | 12.2 | 49.8
20 | CN(CCC#N)C(=O)c1ccc(-c2ccc3c(n2)Oc2ccccc2[C@@H]3C(C)(C)C(=O)Nc2nncs2)cc1F [Example 326] | – | 10.5 | –

The next lines start with results.

Row | Ki [1] [nM] | Ki [3] [nM] | SMILES | Emax [2] [%]
21 | 10.9 | – | CC(C)(C(=O)Nc1nncs1)[C@H]1c2ccccc2Oc2nc(NC(=O)c3ccccc3)ccc21 [Example 152] | –
22 | – | 9.85 | CC(=O)N[C@@H]1CCN(C(=O)c2ccc(-c3ccc4c(n3)Oc3ccccc3[C@@H]4C(C)(C)C(=O)Nc3nncs3)cc2)C1 [Example 306] | 43.5
23 | – | 24.7 | CC1CC(C)CN(C(=O)c2ccc(-c3ccc4c(n3)Oc3ccccc3[C@@H]4C(C)(C)C(=O)Nc3nncs3)cc2)C1 (stereo partly drawn) [Example 305] | 38.3
24 | 107 | – | CC(C)(C(=O)Nc1nccs1)C1c2ccccc2Oc2ncccc21 (stereo not drawn) [Example 67] | –
25 | 221 | – | CC(C)(C(=O)Nc1nncs1)[C@@H]1c2ccccc2Oc2nc(N3CCCC3)ccc21 [Example 137] | –
26 | 29.7 | – | CNc1ccc2c(n1)Oc1ccccc1C2C(C)(C)C(=O)Nc1nccs1 (stereo not drawn) [Example 127] | –
27 | 156 | – | C[C@H](Nc1ccc2c(n1)Oc1ccccc1[C@@H]2C(C)(C)C(=O)Nc1nncs1)c1ccccc1 [Example 142] | –
28 | 39.7 | – | CC(C)(C(=O)Nc1nncs1)C1c2ccccc2Oc2ccccc21 [Example 39] | –
29 | – | 10.8 | CC(C)(C(=O)Nc1nncs1)[C@H]1c2ccccc2Oc2nc(-c3ccc(C(=O)N4CCc5ccccc5C4)cc3)ccc21 [Example 280] | 33.5
30 | – | 10.4 | COC(=O)CN(C)C(=O)c1ccc(-c2ccc3c(n2)Oc2ccccc2[C@@H]3C(C)(C)C(=O)Nc2nncs2)cc1 [Example 293] | 25.4
31 | – | 19.9 | CC1CN(C(=O)c2ccc(-c3ccc4c(n3)Oc3ccccc3[C@@H]4C(C)(C)C(=O)Nc3nncs3)cc2)CC(C)O1 (stereo partly drawn) [Example 273] | 21
32 | – | 20.4 | CC(C)(C(=O)Nc1nncs1)[C@H]1c2ccccc2Oc2nc(-c3ccc(C(=O)N4CCC(C(F)(F)F)CC4)cc3)ccc21 [Example 290] | 28.8
33 | – | 29.3 | CN(CCO)C(=O)c1ccc(-c2ccc3c(n2)Oc2ccccc2[C@@H]3C(C)(C)C(=O)Nc2nncs2)cc1 [Example 294] | 59.4
34 | 26.9 | – | CC1CCCN(c2ccc3c(n2)Oc2ccccc2[C@@H]3C(C)(C)C(=O)Nc2nncs2)C1 (stereo partly drawn) [Example 150] | –
35 | – | 31.4 | CC(C)(C(=O)Nc1nncs1)[C@H]1c2ccccc2Oc2nc(-c3ccc(C(=O)NCCO)cc3)ccc21 [Example 357] | 29.6
36 | 4030 | – | CC(C)(C(=O)Nc1nncs1)[C@H]1c2ccccc2Oc2nc(N3CCCC(c4ccccc4)C3)ccc21 (stereo partly drawn) [Example 147] | –
37 | 186 | – | CC(C)Nc1ccc2c(n1)Oc1ccccc1C2C(C)(C)C(=O)Nc1nccs1 (stereo not drawn) [Example 157] | –
38 | – | 13.8 | CC(C)(C(=O)Nc1nncs1)[C@H]1c2ccccc2Oc2nc(-c3ccc(C(=O)N4CCC(S(C)(=O)=O)C4)cc3)ccc21 (stereo partly drawn) [Example 288] | 35.5
39 | – | 20 | COC1CN(C(=O)c2ccc(-c3ccc4c(n3)Oc3ccccc3[C@@H]4C(C)(C)C(=O)Nc3nncs3)cc2)C1 [Example 289] | 24.3
40 | 36.6 | – | CC(C)(C(=O)Nc1nncs1)[C@H]1c2ccccc2Oc2nc(N3CCC(=O)CC3)ccc21 [Example 161] | –
41 | 9.3 | – | CC(C)(C(=O)Nc1nncs1)[C@H]1c2ccccc2Oc2cc(C#N)ccc21 [Example 112] | –
42 | – | 44 | COC(=O)[C@H]1CCCCN1C(=O)c1ccc(-c2ccc3c(n2)Oc2ccccc2[C@@H]3C(C)(C)C(=O)Nc2nncs2)cc1 [Example 291] | 27
43 | – | 2.6 | CC(C)(C(=O)Nc1nncs1)[C@H]1c2ccccc2Oc2nc(-c3ccc(C(=O)N4CCN(CCO)CC4)cc3)ccc21 [Example 275] | 26
44 | – | 9.21 | CCS(=O)(=O)N1CCN(C(=O)c2ccc(-c3ccc4c(n3)Oc3ccccc3[C@@H]4C(C)(C)C(=O)Nc3nncs3)cc2)CC1 [Example 283] | 24.6
45 | – | 5.84 | COC[C@H]1CCCN1C(=O)c1ccc(-c2ccc3c(n2)Oc2ccccc2[C@@H]3C(C)(C)C(=O)Nc2nncs2)cc1 [Example 285] | 45.3
46 | – | 278 | CC(C)(C(=O)Nc1nncs1)[C@H]1c2ccccc2Oc2nc(-c3ccc(C(=O)N4CCCN(CCO)CC4)cc3)ccc21 [Example 303] | 28.6
47 | – | 81.3 | CC(=O)N1CCCN(C(=O)c2ccc(-c3ccc4c(n3)Oc3ccccc3[C@@H]4C(C)(C)C(=O)Nc3nncs3)cc2)CC1 [Example 277] | 24.5
48 | – | 67.5 | CN(C)[C@@H]1CCN(C(=O)c2ccc(-c3ccc4c(n3)Oc3ccccc3[C@@H]4C(C)(C)C(=O)Nc3nncs3)cc2)C1 [Example 307] | 37.1
49 | – | 3.69 | CC(C)(C(=O)Nc1nncs1)[C@H]1c2ccccc2Oc2nc(-c3ccc(C(=O)N4CCCOCC4)cc3)ccc21 [Example 323] | –
50 | – | 40.9 | CC(=O)c1ccc2c(n1)Oc1ccccc1[C@@H]2C(C)(C)C(=O)Nc1nncs1 [Example 397] | –
